{"source": "paper PMC5362750", "about": "“Discovery of Potent, Selective, and Orally Bioavailable Small-Molecule Modulators of the Mediator Complex-Associated Kinases CDK8 and CDK19” (Journal of Medicinal Chemistry, 2016)", "key": {"GRK6": {"biological_target": "T1, GRK6 (Homo sapiens, UniProt P43250)", "T1 construct": "purchased Millipore (KinaseProfiler) kinase panel", "test": "Kinase panel (Millipore)", "assay_type": "biochemical", "details": "1 µM, ATP at Km"}, "PKBALPHA": {"biological_target": "PKBALPHA (Homo sapiens, UniProt P31749)", "test": "Kinase panel (Millipore)", "assay_type": "biochemical", "details": "1 µM, ATP at Km"}, "PKBGAMMA": {"biological_target": "PKBGAMMA (Homo sapiens, UniProt Q9Y243)", "test": "Kinase panel (Millipore)", "assay_type": "biochemical", "details": "1 µM, ATP at Km"}, "PASK": {"biological_target": "T2, PASK (Homo sapiens, UniProt Q96RG2)", "T2 construct": "purchased Millipore (KinaseProfiler) kinase panel", "test": "Kinase panel (Millipore)", "assay_type": "biochemical", "details": "1 µM, ATP at Km"}, "ROCK-II": {"biological_target": "ROCK-II (Homo sapiens, UniProt O75116)", "sequence (O75116 whole entry)": "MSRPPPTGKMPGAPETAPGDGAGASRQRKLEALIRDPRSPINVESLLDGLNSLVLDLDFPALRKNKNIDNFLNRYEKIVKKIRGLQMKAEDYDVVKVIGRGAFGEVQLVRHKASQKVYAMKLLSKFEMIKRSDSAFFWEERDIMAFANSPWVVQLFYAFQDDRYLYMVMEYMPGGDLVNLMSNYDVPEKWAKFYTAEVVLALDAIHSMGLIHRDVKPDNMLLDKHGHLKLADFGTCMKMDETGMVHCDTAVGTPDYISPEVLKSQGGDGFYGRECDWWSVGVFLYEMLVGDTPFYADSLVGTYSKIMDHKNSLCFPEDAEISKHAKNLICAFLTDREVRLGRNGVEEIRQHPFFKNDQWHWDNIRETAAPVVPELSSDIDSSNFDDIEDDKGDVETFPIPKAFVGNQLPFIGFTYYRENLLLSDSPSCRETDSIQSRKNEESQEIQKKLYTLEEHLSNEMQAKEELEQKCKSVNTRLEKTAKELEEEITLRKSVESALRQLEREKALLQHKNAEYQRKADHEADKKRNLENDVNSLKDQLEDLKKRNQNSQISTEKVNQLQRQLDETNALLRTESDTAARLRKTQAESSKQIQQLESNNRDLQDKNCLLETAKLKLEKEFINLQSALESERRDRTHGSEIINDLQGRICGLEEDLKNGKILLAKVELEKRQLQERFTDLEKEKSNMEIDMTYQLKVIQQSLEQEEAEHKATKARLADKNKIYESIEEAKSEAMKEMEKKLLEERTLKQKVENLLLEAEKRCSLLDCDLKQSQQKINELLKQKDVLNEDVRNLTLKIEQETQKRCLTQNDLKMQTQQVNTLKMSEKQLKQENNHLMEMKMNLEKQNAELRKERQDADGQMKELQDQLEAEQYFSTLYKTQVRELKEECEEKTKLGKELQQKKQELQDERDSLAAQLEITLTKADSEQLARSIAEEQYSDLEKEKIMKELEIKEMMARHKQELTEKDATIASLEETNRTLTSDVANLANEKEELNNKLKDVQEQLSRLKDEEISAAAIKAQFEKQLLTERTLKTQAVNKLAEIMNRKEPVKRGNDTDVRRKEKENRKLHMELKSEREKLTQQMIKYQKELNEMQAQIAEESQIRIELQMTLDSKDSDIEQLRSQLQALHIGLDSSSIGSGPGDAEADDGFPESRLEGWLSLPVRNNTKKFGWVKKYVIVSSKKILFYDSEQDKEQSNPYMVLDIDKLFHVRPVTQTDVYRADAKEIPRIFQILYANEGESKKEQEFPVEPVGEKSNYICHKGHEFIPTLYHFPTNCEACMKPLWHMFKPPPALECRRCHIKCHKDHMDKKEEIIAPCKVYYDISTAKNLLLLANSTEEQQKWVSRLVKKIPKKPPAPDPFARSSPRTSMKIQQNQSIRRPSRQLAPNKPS", "test": "Kinase panel (Millipore)", "assay_type": "biochemical", "details": "1 µM, ATP at Km"}, "PRKX": {"biological_target": "T3, PRKX (Homo sapiens, UniProt P51817)", "T3 construct": "purchased Millipore (KinaseProfiler) kinase panel", "test": "Kinase panel (Millipore)", "assay_type": "biochemical", "details": "1 µM, ATP at Km"}, "5-HT2C (h)": {"biological_target": "5-HT2C (h) (Homo sapiens, UniProt P28335)", "test": "biochemical", "details": "read-out: % Inhibition of Control Specific Binding"}, "RSK2": {"biological_target": "RSK2 (Homo sapiens, UniProt P51812)", "sequence (P51812 whole entry)": "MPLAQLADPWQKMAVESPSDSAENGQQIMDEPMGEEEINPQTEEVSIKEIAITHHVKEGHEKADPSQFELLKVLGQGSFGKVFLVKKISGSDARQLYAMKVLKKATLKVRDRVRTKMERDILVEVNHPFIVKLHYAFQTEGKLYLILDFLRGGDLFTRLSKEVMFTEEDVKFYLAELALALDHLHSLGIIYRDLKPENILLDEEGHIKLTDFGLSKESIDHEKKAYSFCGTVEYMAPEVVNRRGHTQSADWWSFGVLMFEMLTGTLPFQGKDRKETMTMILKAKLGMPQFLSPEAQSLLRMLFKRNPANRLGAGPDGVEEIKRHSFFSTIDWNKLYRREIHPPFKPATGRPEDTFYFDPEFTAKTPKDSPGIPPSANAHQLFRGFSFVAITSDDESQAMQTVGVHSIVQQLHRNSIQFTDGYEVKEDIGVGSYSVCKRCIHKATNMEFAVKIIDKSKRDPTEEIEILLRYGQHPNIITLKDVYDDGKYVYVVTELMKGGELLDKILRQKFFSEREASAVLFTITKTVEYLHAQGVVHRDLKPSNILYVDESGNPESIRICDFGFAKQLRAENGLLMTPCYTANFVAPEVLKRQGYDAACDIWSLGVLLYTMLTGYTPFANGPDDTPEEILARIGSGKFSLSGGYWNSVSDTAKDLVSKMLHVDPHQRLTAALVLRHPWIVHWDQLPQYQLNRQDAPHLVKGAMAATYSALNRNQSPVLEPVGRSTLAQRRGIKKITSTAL", "test": "Kinase panel (Millipore)", "assay_type": "biochemical", "details": "1 µM, ATP at Km"}, "JAK2": {"biological_target": "T4, JAK2 (Homo sapiens, UniProt O60674)", "T4 construct": "purchased Millipore (KinaseProfiler) kinase panel", "test": "Kinase panel (Millipore)", "assay_type": "biochemical", "details": "1 µM, ATP at Km"}, "CK1GAMMA2": {"biological_target": "CK1GAMMA2 (Homo sapiens, UniProt P78368)", "test": "Kinase panel (Millipore)", "assay_type": "biochemical", "details": "1 µM, ATP at Km"}, "alpha 2C (h)": {"biological_target": "alpha 2C (h) (Homo sapiens, UniProt P18825)", "sequence (P18825 whole entry)": "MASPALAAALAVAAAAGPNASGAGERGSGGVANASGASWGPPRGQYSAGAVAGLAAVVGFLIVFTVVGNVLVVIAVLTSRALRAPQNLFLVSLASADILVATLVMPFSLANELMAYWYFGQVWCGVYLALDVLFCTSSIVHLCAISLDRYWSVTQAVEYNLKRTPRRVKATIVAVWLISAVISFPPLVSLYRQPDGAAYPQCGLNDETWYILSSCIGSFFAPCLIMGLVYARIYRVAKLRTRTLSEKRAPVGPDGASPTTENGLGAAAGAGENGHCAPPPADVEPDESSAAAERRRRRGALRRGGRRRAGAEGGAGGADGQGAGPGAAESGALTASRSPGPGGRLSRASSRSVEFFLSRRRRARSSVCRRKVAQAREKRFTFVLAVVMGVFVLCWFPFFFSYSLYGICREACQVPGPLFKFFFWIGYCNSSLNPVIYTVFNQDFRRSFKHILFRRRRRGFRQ", "test": "biochemical", "details": "read-out: % Inhibition of Control Specific Binding"}, "PRAK": {"biological_target": "T5, PRAK (Homo sapiens, UniProt Q8IW41)", "T5 construct": "purchased Millipore (KinaseProfiler) kinase panel", "test": "Kinase panel (Millipore)", "assay_type": "biochemical", "details": "1 µM, ATP at Km"}, "CAMKIIBETA": {"biological_target": "CAMKIIBETA (Homo sapiens, UniProt Q13554)", "sequence (Q13554 whole entry)": "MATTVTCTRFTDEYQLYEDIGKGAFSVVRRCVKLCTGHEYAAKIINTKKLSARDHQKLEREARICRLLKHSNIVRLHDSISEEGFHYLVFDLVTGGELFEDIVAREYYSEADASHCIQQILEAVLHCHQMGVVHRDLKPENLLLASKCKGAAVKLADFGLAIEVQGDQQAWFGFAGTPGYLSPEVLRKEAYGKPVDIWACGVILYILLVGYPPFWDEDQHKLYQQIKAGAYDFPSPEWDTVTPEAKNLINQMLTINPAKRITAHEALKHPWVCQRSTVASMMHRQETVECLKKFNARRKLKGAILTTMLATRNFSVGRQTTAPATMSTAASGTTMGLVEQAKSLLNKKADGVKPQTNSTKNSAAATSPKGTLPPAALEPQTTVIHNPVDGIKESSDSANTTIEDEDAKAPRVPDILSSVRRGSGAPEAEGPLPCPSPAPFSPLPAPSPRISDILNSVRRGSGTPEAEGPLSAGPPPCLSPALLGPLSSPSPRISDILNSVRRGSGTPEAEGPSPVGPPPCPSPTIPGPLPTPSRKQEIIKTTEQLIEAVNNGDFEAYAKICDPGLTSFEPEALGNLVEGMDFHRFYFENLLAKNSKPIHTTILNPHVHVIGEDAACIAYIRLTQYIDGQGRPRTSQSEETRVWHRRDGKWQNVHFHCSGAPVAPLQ", "test": "Kinase panel (Millipore)", "assay_type": "biochemical", "details": "1 µM, ATP at Km"}, "ACK1": {"biological_target": "T6, ACK1 (Homo sapiens, UniProt Q07912)", "T6 construct": "purchased Millipore (KinaseProfiler) kinase panel", "test": "Kinase panel (Millipore)", "assay_type": "biochemical", "details": "1 µM, ATP at Km"}, "D3 (h)": {"biological_target": "D3 (h) (Homo sapiens, UniProt P35462)", "test": "biochemical", "details": "read-out: % Inhibition of Control Specific Binding"}, "CDK1/CYCLINB": {"biological_target": "CDK1/CYCLINB (Homo sapiens, UniProt P06493)", "details": "1 µM, ATP at Km"}, "CDK9/CYCLINT1": {"biological_target": "CDK9/CYCLINT1 (Homo sapiens, UniProt P50750)", "details": "1 µM, ATP at Km"}, "SAPK4": {"biological_target": "SAPK4 (Homo sapiens, UniProt O15264)", "sequence (O15264 whole entry)": "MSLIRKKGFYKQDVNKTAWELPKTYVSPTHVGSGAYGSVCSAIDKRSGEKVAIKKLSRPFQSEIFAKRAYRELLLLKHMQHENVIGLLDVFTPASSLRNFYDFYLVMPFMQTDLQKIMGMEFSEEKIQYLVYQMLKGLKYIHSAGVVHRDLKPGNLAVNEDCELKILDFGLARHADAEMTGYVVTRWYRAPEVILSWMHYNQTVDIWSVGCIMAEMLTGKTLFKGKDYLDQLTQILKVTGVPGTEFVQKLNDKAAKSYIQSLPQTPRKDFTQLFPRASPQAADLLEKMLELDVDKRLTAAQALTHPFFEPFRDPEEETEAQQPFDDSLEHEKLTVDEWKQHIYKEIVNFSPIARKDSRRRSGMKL", "test": "Kinase panel (Millipore)", "assay_type": "biochemical", "details": "1 µM, ATP at Km"}, "NEK2": {"biological_target": "NEK2 (Homo sapiens, UniProt P51955)", "sequence (P51955 whole entry)": "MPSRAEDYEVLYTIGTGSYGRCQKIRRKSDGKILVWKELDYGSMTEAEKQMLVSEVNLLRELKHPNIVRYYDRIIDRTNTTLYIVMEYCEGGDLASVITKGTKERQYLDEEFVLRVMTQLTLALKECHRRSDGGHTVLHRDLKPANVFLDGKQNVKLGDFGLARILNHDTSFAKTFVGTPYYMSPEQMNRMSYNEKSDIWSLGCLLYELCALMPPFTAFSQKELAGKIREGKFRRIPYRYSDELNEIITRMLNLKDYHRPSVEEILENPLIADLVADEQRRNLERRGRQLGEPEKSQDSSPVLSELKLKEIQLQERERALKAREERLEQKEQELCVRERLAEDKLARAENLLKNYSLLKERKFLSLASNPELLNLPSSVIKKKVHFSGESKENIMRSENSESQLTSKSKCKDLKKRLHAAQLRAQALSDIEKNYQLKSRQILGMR", "test": "Kinase panel (Millipore)", "assay_type": "biochemical", "details": "1 µM, ATP at Km"}, "PCP": {"test_system": "PCP", "details": "10 µM, antagonist radioligand"}, "PDK1": {"biological_target": "PDK1 (Homo sapiens, UniProt O15530)", "test": "Kinase panel (Millipore)", "assay_type": "biochemical", "details": "1 µM, ATP at Km"}, "CDK5/P25": {"biological_target": "CDK5/P25 (Homo sapiens, UniProt Q00535)", "details": "1 µM, ATP at Km"}, "GABAB(1b) (h)": {"biological_target": "GABAB(1b) (h) (Homo sapiens, UniProt Q9UBS5)", "test": "biochemical", "details": "read-out: % Inhibition of Control Specific Binding"}, "SAPK2A(T106M)": {"biological_target": "SAPK2A(T106M) (Homo sapiens, UniProt Q16539, T106M)", "details": "1 µM, ATP at Km"}, "FES": {"biological_target": "FES (Homo sapiens, UniProt P07332)", "test": "Kinase panel (Millipore)", "assay_type": "biochemical", "details": "1 µM, ATP at Km"}, "KDR": {"biological_target": "T7, KDR (Homo sapiens, UniProt P35968)", "T7 construct": "purchased Millipore (KinaseProfiler) kinase panel", "test": "Kinase panel (Millipore)", "assay_type": "biochemical", "details": "1 µM, ATP at Km"}, "PAK4": {"biological_target": "T8, PAK4 (Homo sapiens, UniProt O96013)", "T8 construct": "purchased Millipore (KinaseProfiler) kinase panel", "test": "Kinase panel (Millipore)", "assay_type": "biochemical", "details": "1 µM, ATP at Km"}, "[1]": {"biological_target": "N neuronal alpha 4beta 2 (h) (Homo sapiens, UniProt P17787+P43681)", "test": "biochemical", "details": "read-out: % Inhibition of Control Specific Binding"}, "cMET (D1246N)": {"biological_target": "cMET (D1246N) (Homo sapiens, UniProt P08581, D1228N)", "details": "1 µM, ATP at Km"}, "MEK1": {"biological_target": "MEK1 (Homo sapiens, UniProt Q02750)", "test": "Kinase panel (Millipore)", "assay_type": "biochemical", "details": "1 µM, ATP at Km"}, "SRPK2": {"biological_target": "T9, SRPK2 (Homo sapiens, UniProt P78362)", "T9 construct": "purchased Millipore (KinaseProfiler) kinase panel", "test": "Kinase panel (Millipore)", "assay_type": "biochemical", "details": "1 µM, ATP at Km"}, "CK2ALPHA2": {"biological_target": "CK2ALPHA2 (Homo sapiens, UniProt P19784)", "details": "1 µM, ATP at Km"}, "[…](D842V)": {"biological_target": "[…](D842V) (Homo sapiens, UniProt P16234, D842V)", "details": "1 µM, ATP at Km"}, "ZAP-70": {"biological_target": "T10, ZAP-70 (Homo sapiens, UniProt P43403)", "T10 construct": "purchased Millipore (KinaseProfiler) kinase panel", "test": "Kinase panel (Millipore)", "assay_type": "biochemical", "details": "1 µM, ATP at Km"}, "BMX": {"biological_target": "T11, BMX (Homo sapiens, UniProt P51813)", "T11 construct": "purchased Millipore (KinaseProfiler) kinase panel", "test": "Kinase panel (Millipore)", "assay_type": "biochemical", "details": "1 µM, ATP at Km"}, "LIMK1": {"biological_target": "LIMK1 (Homo sapiens, UniProt P53667)", "test": "Kinase panel (Millipore)", "assay_type": "biochemical", "details": "1 µM, ATP at Km"}, "N muscle-type (h)": {"biological_target": "N muscle-type (h) (Homo sapiens, UniProt P02708+P07510+Q07001)", "test": "biochemical", "details": "read-out: % Inhibition of Control Specific Binding"}, "AURKA": {"biological_target": "AURKA (Homo sapiens, UniProt O14965)", "test": "Kinase panel (Millipore)", "assay_type": "biochemical", "details": "1 µM, ATP at Km"}, "PKCZETA": {"biological_target": "T12, PKCZETA (Homo sapiens, UniProt Q05513)", "T12 construct": "purchased Millipore (KinaseProfiler) kinase panel", "test": "Kinase panel (Millipore)", "assay_type": "biochemical", "details": "1 µM, ATP at Km"}, "JNK3": {"biological_target": "JNK3 (Homo sapiens, UniProt P53779)", "sequence (P53779 whole entry)": "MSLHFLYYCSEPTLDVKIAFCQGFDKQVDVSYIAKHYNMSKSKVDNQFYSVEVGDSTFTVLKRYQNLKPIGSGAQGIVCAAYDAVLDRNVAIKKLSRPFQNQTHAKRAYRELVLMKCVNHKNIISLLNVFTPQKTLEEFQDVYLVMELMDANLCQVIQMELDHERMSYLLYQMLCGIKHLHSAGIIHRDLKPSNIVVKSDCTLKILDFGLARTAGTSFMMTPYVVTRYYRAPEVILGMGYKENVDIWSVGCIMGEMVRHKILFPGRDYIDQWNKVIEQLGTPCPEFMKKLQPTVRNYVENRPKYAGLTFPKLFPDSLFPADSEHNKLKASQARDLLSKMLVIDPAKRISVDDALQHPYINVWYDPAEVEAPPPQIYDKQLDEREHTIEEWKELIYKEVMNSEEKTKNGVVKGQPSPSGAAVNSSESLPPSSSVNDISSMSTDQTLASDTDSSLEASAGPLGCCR", "test": "Kinase panel (Millipore)", "assay_type": "biochemical", "details": "1 µM, ATP at Km"}, "CKIT(D816V)": {"biological_target": "CKIT(D816V) (Homo sapiens, UniProt P10721, D816V)", "details": "1 µM, ATP at Km"}, "CLK2": {"biological_target": "CLK2 (Homo sapiens, UniProt P49760)", "sequence (P49760 whole entry)": "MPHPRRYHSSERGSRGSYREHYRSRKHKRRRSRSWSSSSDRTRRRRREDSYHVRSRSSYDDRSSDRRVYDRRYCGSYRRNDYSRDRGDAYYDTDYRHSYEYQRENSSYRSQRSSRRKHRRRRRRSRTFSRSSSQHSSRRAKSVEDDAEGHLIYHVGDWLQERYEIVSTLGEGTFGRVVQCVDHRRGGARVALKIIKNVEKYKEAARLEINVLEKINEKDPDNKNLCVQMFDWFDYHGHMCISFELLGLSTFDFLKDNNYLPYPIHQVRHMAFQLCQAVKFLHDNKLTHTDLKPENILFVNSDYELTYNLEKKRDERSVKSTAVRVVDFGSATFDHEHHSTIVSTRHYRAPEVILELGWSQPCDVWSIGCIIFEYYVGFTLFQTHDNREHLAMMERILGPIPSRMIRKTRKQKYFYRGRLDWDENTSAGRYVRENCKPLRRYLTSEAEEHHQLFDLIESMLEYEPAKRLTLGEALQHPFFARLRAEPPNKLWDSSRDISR", "test": "Kinase panel (Millipore)", "assay_type": "biochemical", "details": "1 µM, ATP at Km"}, "cMET (M1268T)": {"biological_target": "cMET (M1268T) (Homo sapiens, UniProt P08581, M1250T)", "details": "1 µM, ATP at Km"}}, "data": [{"smiles": "Cn1ncc2cc(-c3cnc(N)c(Cl)c3N3CCC4(CCNC4=O)CC3)ccc21", "note": "[Compound 109, 8-(2-Amino-3-chloro-5-(1-methyl-1H-indazol-5-yl)pyridin-4-yl)-2,8-diazaspiro[4.5]decan-1-one]", "values": [{"measurement": "% effect", "setting": "GRK6", "result": 5, "unit": "%"}, {"measurement": "% effect", "setting": "PKBALPHA", "result": 3, "unit": "%"}, {"measurement": "% effect", "setting": "PKBGAMMA", "result": 7, "unit": "%"}, {"measurement": "% effect", "setting": "PASK", "result": -20, "unit": "%"}, {"measurement": "% effect", "setting": "ROCK-II", "result": -10, "unit": "%"}, {"measurement": "% effect", "setting": "PRKX", "result": -9, "unit": "%"}, {"measurement": "inhibition at 10 µM", "setting": "5-HT2C (h)", "result": 6, "unit": "%"}, {"measurement": "% effect", "setting": "RSK2", "result": -11, "unit": "%"}, {"measurement": "% effect", "setting": "JAK2", "result": -20, "unit": "%"}, {"measurement": "% effect", "setting": "CK1GAMMA2", "result": 5, "unit": "%"}, {"measurement": "inhibition at 10 µM", "setting": "alpha 2C (h)", "result": 25, "unit": "%"}, {"measurement": "% effect", "setting": "PRAK", "result": 13, "unit": "%"}, {"measurement": "% effect", "setting": "CAMKIIBETA", "result": 19, "unit": "%"}, {"measurement": "% effect", "setting": "ACK1", "result": -11, "unit": "%"}, {"measurement": "inhibition at 10 µM", "setting": "D3 (h)", "result": 7, "unit": "%"}, {"measurement": "% effect", "setting": "CDK1/CYCLINB", "result": -12, "unit": "%"}, {"measurement": "% effect", "setting": "CDK9/CYCLINT1", "result": -8, "unit": "%"}, {"measurement": "% effect", "setting": "SAPK4", "result": -1, "unit": "%"}, {"measurement": "% effect", "setting": "NEK2", "result": 4, "unit": "%"}, {"measurement": "% Inhibition of Control Specific Binding", "setting": "PCP", "result": -1, "unit": "%"}, {"measurement": "% effect", "setting": "PDK1", "result": 1, "unit": "%"}, {"measurement": "% effect", "setting": "CDK5/P25", "result": 13, "unit": "%"}, {"measurement": "inhibition at 10 µM", "setting": "GABAB(1b) (h)", "result": 2, "unit": "%"}, {"measurement": "% effect", "setting": "SAPK2A(T106M)", "result": 2, "unit": "%"}, {"measurement": "% effect", "setting": "FES", "result": -6, "unit": "%"}, {"measurement": "% effect", "setting": "KDR", "result": -26, "unit": "%"}, {"measurement": "% effect", "setting": "PAK4", "result": -1, "unit": "%"}, {"measurement": "inhibition at 10 µM", "setting": "[1]", "result": -6, "unit": "%"}, {"measurement": "% effect", "setting": "cMET (D1246N)", "result": -2, "unit": "%"}, {"measurement": "% effect", "setting": "MEK1", "result": -13, "unit": "%"}, {"measurement": "% effect", "setting": "SRPK2", "result": 4, "unit": "%"}, {"measurement": "% effect", "setting": "CK2ALPHA2", "result": -13, "unit": "%"}, {"measurement": "% effect", "setting": "[…](D842V)", "result": -10, "unit": "%"}, {"measurement": "% effect", "setting": "ZAP-70", "result": 21, "unit": "%"}, {"measurement": "% effect", "setting": "BMX", "result": -6, "unit": "%"}, {"measurement": "% effect", "setting": "LIMK1", "result": -13, "unit": "%"}, {"measurement": "inhibition at 10 µM", "setting": "N muscle-type (h)", "result": 11, "unit": "%"}, {"measurement": "% effect", "setting": "AURKA", "result": -16, "unit": "%"}, {"measurement": "% effect", "setting": "PKCZETA", "result": 1, "unit": "%"}, {"measurement": "% effect", "setting": "JNK3", "result": -5, "unit": "%"}, {"measurement": "% effect", "setting": "CKIT(D816V)", "result": -7, "unit": "%"}, {"measurement": "% effect", "setting": "CLK2", "result": -2, "unit": "%"}, {"measurement": "% effect", "setting": "cMET (M1268T)", "result": 1, "unit": "%"}]}]}
